The target of test [1] is T1, PD-1 recruitment of SHP2 (Homo sapiens, UniProt Q06124+Q15116).
T1 construct: expressed in transfected cells
Briefly: Confocal localization of PD-1-GFP and SHP2-mCherry in 293T cells. In kind it is cell-based. The note with it: 293T stable cell line, MTC 6 hours, then 1 μM PVD 5 minutes. The protocol:
(2) Fusion genes PD-1-GFP and SHP2-mCherry were transfected into 293T cells with liposomes to construct a stable cell line. The cells were added with MTC at different concentrations, cultured for 6 hours, and then treated with 1 μM PVD (a dephosphorylase inhibitor) for 5 minutes. Cells were fixed with 4% paraformaldehyde and the effect of MTC on the localization of GFP and mCherry, namely PD-1 and SHP2, was observed under Confocal.

For test [2], the target named is T1, PD-1 recruitment of SHP2. Briefly: Split-luciferase PD-1-Cluc / Nluc-SHP2 interaction in 293T cells. The class given is cell-based. Particulars: 293T stable cell line, different concentrations of MTC, 6 hours; FIG. 7A. An excerpt:
This example preliminarily explored the mechanism by which MTC inhibits PD-1 signaling, and assessed the ability of MTC to affect PD-1 recruitment of SHP2. The binding of PD-1 to ligands can recruit SHP2 protein to the surrounding T cell receptors, thereby inhibiting the activation of T cell receptor proximal kinases, reducing Lck-mediated phosphorylation of ZAP-70 protein and the initiation of downstream signaling pathways. Luciferase can be split into two fragments, N-terminal and C-terminal. When the two fragments are fused with other proteins, the activity of luciferase can be detected if the N-terminal and C-terminal luciferase fragments are close due to the interaction of their fusion proteins. Therefore, the strength of the interaction of the fused proteins can indirectly detected by measuring the activity of luciferase.
(1) Fusion genes PD-1-Cluc and Nluc-SHP2 were transfected into 293T cells with liposomes to construct a stable cell line. The cells were added with different concentrations of MTC and cultured for 6 hours to observe the effect of MTC on the reading of luciferase.

The subject of another test is OT-1 CTL cells. Briefly: Secretion of CTL effector molecules on co-culture with EG7-PD-L1 target cells (flow cytometry). The class given is cell-based, mouse. The note with it: CTL : EG7-PD-L1 1:1, GolgiPlug 6 hours; FIG. 3. The protocol:
(1) Preparation of CTL cells: The spleens of OT1 mice were obtained, ground and added with red blood cell lysate, to prepare single-cell suspension. The culture medium was 1640+10% FBS+50 μM βME+10 nM IL-2. Cell density was adjusted to about 2-4 million/mL. The cells were added with 10 nM OVA257-264, and cultured in a cell incubator at 37° C., 5% CO2. From the day of CTL preparation, cells were stained with FITC-labeled PD-1 antibody every day, and the changes of PD-1 expression on the cell surfaces were detected by flow cytometry.
(3) CTL cells and target cells EG7 (EL4 lymphoma cells expressing chicken ovalbumin) were mixed and cultured at a concentration of 1:1. The cell mixture was treated with 1 μM protein transport inhibitor GolgiPlug™ for 6 hours, and then fixed by 4% paraformaldehyde. The cells were then treated with 0.1% saponin, and stained with antibodies against each effector molecule. The effect of MTC on the secretion of CTL effector molecules was detected by flow cytometry.
(In general: Flow cytometry measures light scatter and fluorescence of single cells or particles in a stream.)

In the next test the test system is EL4-OVA-mPDL1 cells. In words: EL4-OVA-mPDL1 subcutaneous transplanted tumor in Rag1−/− mice given CTL cells. The class given is in vivo, mouse. The protocol: (1) Lymphoma cells overexpressing chicken ovalbumin OVA and mouse PD-L1, namely EL4-OVA-mPDL1 cells, were resuspended in BD Matrigel, in which, for one side of one mouse, 2×10^6 cells were resuspended in 100 μl BD Matrigel.
(2) The mixture of cells and Matrigel was inoculated into the left and right flanks of Rag1−/− mice subcutaneously, each at a dosage of 100 μl.
(3) When the tumor was fixed about 5 days after inoculation, activated OT-1 T cells (i.e., 2×10^6 CTL cells/mouse) were injected through the tail vein, and the mice were divided into 3 groups, namely the CTL cell group, the CTL cell +10 mg/kg/2 days PD-1 antibody group, and the CTL cell +40 mg/kg/day MTC group.
(4) The length and width of the transplanted tumor of each group of mice were measured from the day of tail vein injection of CTL cells, and every other day, and the tumor volume was calculated as length×width^2/2 (FIG. 5A).

In another test the test system is EG-7-PD-L1 cells. Briefly: CTL killing of EG-7-PD-L1 target cells (PI staining, flow cytometry). In kind it is cell-based, mouse. Particulars: CTL : EG-7-PD-L1 5:1; 1 μM, 5 μM, 10 μM MTC, 4 hours; FIG. 4A. The protocol:
(1) The preparation of CTL cells was described in Example 2.
(2) EG-7-PD-L1 cells were labeled with 5 nM CFSE. CTL cells and EG-7-PD-L1 were mixed at a ratio of 5:1, treated with 1 μM, 5 μM, and 10 μM MTC, respectively, for 4 hours, and then stained with 10 μg/mL PI. The apoptosis of target cells EG-7-PD-L1 was detected by flow cytometry, and then the killing ability of CTL cells to target cells was assessed.

Test [3] relates to Jurkat-PD-1-NFAT-LUC cells. In words: NFAT-luciferase activity in Jurkat-PD-1-NFAT-LUC cells co-cultured with Raji-PD-L1 cells. The class given is cell-based, human. Particulars: 4.86 μM MTC or LMT added with Raji-PD-L1 cells, 6 h co-culture; FIG. 1E. The protocol:
(1) Jurkat cells were used to construct a stable cell line expressing PD-1. The pCAGin-PD-1 plasmid was electroporated into Jurkat cells, which were then screened with 900 μg/mL G418 antibiotic and flow-sorted for single clones. Jurkat-PD-1 cells were then electroporated into a DNA fragment that controls the luciferase gene through the NFAT-binding site (referred to as NFAT-LUC). A single clone was then flow-sorted and named clone 5. Using this cell, the expression level of IL-2 can be measured by the activity of luciferase. Raji cells stably expressing PD-L1 were constructed, and the pCDNA-PD-L1 plasmid was electroporated into the Raji cells, followed by screening with 2 μg/mL puromycin, and then flow-sorted single clones and named clone 1.
(4) A 96-well plate was coated with 10 μg/mL CD3 antibody/10 μg/mL CD28 antibody overnight at 4° C., and excess antibody then washed off with PBS. Raji cells or Raji-PD-L1 cells were co-cultured with Jurkat-PD-1-NFAT-LUC cells at a ratio of 1:1, or to a mixture of Raji-PD-L1 cells and Jurkat-PD-1-NFAT-LUC cells at a ratio of 1:1 was added 4.86 μM MTC or LMT. Luciferase substrate was added after 6h co-culture and the luciferase activity was measured by a microplate reader.

T1 sequence (Q15116 25-288): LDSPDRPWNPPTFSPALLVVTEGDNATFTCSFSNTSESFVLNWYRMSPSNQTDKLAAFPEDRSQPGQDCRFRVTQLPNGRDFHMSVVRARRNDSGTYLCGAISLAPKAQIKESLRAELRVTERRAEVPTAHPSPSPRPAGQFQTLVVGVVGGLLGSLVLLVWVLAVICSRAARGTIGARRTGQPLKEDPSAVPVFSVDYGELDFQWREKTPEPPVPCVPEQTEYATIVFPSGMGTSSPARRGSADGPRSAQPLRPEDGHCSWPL
T1 sequence (Q06124 whole entry): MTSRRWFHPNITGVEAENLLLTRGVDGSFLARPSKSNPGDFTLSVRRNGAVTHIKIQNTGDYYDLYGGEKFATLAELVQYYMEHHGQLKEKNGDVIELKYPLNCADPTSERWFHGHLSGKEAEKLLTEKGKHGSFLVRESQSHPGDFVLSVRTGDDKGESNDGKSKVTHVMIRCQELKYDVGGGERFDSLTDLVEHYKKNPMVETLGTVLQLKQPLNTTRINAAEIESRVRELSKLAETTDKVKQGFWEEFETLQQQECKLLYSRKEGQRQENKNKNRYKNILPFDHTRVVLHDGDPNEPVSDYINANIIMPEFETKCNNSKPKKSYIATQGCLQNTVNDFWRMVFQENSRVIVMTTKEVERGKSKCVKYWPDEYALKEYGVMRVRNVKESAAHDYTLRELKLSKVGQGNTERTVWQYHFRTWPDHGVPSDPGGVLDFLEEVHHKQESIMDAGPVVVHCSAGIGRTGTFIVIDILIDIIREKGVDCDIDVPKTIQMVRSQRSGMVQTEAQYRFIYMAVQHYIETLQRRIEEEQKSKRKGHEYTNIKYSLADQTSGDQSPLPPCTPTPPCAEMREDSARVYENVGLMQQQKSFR

With `CN(C)c1ccc2nc3ccc(N(C)C)cc3[s+]c2c1` [MTC, 3,7-bis(dimethylamino)-phenothiazine-5-ium chloride], the “localization of SHP2-mCherry relative to PD-1-GFP” value on PD-1 recruitment of SHP2 [1] is “dissociation of mCherry from the membrane”. For the same compound, the “readings of luciferase (PD-1-Cluc / Nluc-SHP2 interaction)” value on PD-1 recruitment of SHP2 [2] was “reduce the readings of luciferase”. Besides, in the test on OT-1 CTL cells, the “secretion of Granzyme B in CTL cells” value is recorded as “increased sharply”, the “secretion of IFNγ in CTL cells” value is on record as “increased sharply”, the “secretion of IL-2 in CTL cells” value is given as “increased sharply” and the “secretion of perforin in CTL cells” value is “increased sharply”. Also, the “tumor growth (tumor volume and tumor weight)” value with EL4-OVA-mPDL1 cells (CTL cells by tail vein, MTC 40 mg/kg/day intragastric, PD-1 antibody 10 mg/kg/2 days intraperitoneal, vs CTL cell-only group, FIGS. 5B, C, D) was “strongly inhibited tumor growth”. Moreover, in the test with EL4-OVA-mPDL1 cells (MTC 40 mg/kg/day vs PD-1 antibody 10 mg/kg/2 days), the “therapeutic effect of CTL+MTC compared with CTL+PD-1 antibody treatment group” value is “better therapeutic effect”. Also, the “killing ability of CTL cells against EG-7-PD-L1” value in the test on EG-7-PD-L1 cells is “significantly restored”. Besides, the luciferase activity result in test [3] is listed as “increased dramatically”.

Source of the values: US20220323454A1, “PHENOTHIAZINES AND THEIR DERIVATIVES FOR USE AS A MEDICAMENT” (Guangzhou Virotech Pharmaceutical Co., Ltd., priority 2019, published 2022).
